# Earlier results in US20110274624A1, “CONTRAST AGENTS IN POROUS PARTICLES” (WILLIAM MARSH RICE UNIVERSITY, priority 2010, published 2011).
# Where two headings read alike, the source gives them in different places.
smiles,measurement,setting,value
O=C([O-])CN(CCN(CC(=O)[O-])CC(=O)[O-])CCN(CC(=O)[O-])C(COCc1ccccc1)C(=O)[O-].[Gd+3] (stereo not shown) [Gd-BOPTA],r1 per Gd^3+ ion,1.41T,4.1 (1. 41T) mM^−1s^−1
O=C([O-])CN1CCN(CC(=O)[O-])CCN(CC(=O)[O-])CCN(CC(=O)[O-])CC1.[Gd+3] [Gd-DOTA],r1 per Gd^3+ ion,1.41T,3.1 (1.41T) mM^−1s^−1
CNC(=O)CN(CCN(CCN(CC(=O)[O-])CC(=O)NC)CC(=O)[O-])CC(=O)[O-].[Gd+3] [Gd-DTPA-BMA],r1 per Gd^3+ ion,1.41T,3.6 (1. 41T) mM^−1s^−1
CC(O)CN1CCN(CC(=O)[O-])CCN(CC(=O)[O-])CCN(CC(=O)[O-])CC1.[Gd+3] (stereo not shown) [Gd-HP-DO3A],r1 per Gd^3+ ion,1.41T,3.2 (1. 41T) mM^−1s^−1
[Gd+3] [Gd^3+ ion],longitudinal relaxivity r1,field not stated,~8 mM⁻¹ s⁻¹
"O=C([O-])CN(CCN(CC(=O)[O-])CC(=O)[O-])CCN(CC(=O)[O-])CC(=O)[O-].[Gd+3] [MAG, Gd-DTPA]",r1 per Gd^3+ ion,1.41T,3.4 (1.41T) mM^−1s^−1
same,r1 per Gd^3+ ion,1.5T,~4 mM⁻¹ s⁻¹
